The results in this text go back to patent publication US9512111B2, “N-sulfonylated tetrahydroquinolines and related bicyclic compounds for inhibition of RORγ activity and the treatment of disease” (Lycera Corporation, priority 2010, dated 2016).

pIC50: −log10 of the molar value.

This assay addresses T1, RORγ-LBD (Homo sapiens, UniProt P51449).
T1 construct: HIS-tagged RORγ-LBD was recombinantly expressed in SF9 cells; made in house; host or cells: SF9 cells (baculovirus); unpurified lysate
T1 sequence (P51449 269-508 limits assumed): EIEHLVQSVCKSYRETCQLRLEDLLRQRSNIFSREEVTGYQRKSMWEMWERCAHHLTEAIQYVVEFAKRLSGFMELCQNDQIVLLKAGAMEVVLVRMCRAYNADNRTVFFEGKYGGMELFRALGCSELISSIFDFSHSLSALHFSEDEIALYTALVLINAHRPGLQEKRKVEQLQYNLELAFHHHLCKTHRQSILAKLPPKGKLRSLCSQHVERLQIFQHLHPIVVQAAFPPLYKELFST
Put plainly: RORγ-Ligand Binding Domain TR-FRET Assay. Format: biochemical. In short, it runs like this:
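Unpurified His-tagged LBD in Sf9 lysate (~10 nM final) in 25 mM HEPES pH 7.0, 100 mM NaCl, 0.01% Tween, 0.1% BSA, with biotinylated SRC1-2 LXXLL peptide (450 nM), Eu anti-His (2 nM) and streptavidin-APC (60 nM). Incubated 4 h to overnight; IC50 from 665/615 nm TR-FRET ratio.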
(In general: In TR-FRET formats the signal depends on donor and acceptor labels being close together.)

For orientation: pIC50 means the negative decadic logarithm of the IC50, by convention in mol/L. A higher pIC50 goes with a small IC50. As for `O=C(Nc1ccc2cnn(S(=O)(=O)c3ccc(F)c(C(F)(F)F)c3)c2c1)c1c(F)cccc1C(F)(F)F` [Compound V-44], under “Table 8, indazoles”, the pIC50 was greater than 4.82.

In turn, `O=C(Nc1ccc2cnn(S(=O)(=O)c3ccc(F)cc3Cl)c2c1)c1c(F)cccc1Cl` [Compound V-166] showed a pIC50 (Table 8, indazoles) greater than 4.82.

With `O=C(Nc1ccc2cnn(S(=O)(=O)Cc3cc(Cl)cc(Cl)c3)c2c1)c1c(F)cccc1Cl` [Compound V-138], the pIC50 (Table 8, indazoles) is greater than 4.82.

As to `COc1ccccc1S(=O)(=O)n1ncc2ccc(NC(=O)c3c(F)cccc3Cl)cc21` [Compound V-111], the pIC50 (Table 8, indazoles) was greater than 4.82.

In the case of `COc1cccc(S(=O)(=O)n2ncc3ccc(NC(=O)Cc4cc(F)cc(F)c4)cc32)c1` [Compound V-16], the pIC50 (Table 8, indazoles) is greater than 4.82.

As for `O=C(Nc1ccc2cnn(S(=O)(=O)c3cccc(OC(F)(F)F)c3)c2c1)c1c(F)cccc1Cl` [Compound V-54], the pIC50 (Table 8, indazoles) is greater than 4.82.

`Cc1nn(C(F)F)cc1S(=O)(=O)n1ncc2ccc(NC(=O)c3c(F)cccc3Cl)cc21` [Compound V-104] had a negative-log IC50 (pIC50) (Table 8, indazoles) greater than 4.82.

In turn, `O=C(Nc1ccc2cnn(S(=O)(=O)c3cccc(C(F)(F)F)c3)c2c1)c1c(F)cccc1C(F)(F)F` [Compound V-51] showed a pIC50 (Table 8, indazoles) greater than 4.82.

For the setting “Table 8, indazoles”, `O=C(Nc1ccc2cnn(S(=O)(=O)c3ccc(Cl)cc3)c2c1)c1c(F)cccc1Cl` [Compound V-156] showed a negative-log IC50 (pIC50) greater than 4.82.

For the compound `N#Cc1cccc(S(=O)(=O)N2C[C@@H](CO)Oc3ccc(NC(=O)c4c(F)cccc4C(F)(F)F)cc32)c1` [VI-57], under “benzoxazines, Table 9”, the pIC50 is greater than 4.82.

Compound `Cc1cccc(S(=O)(=O)n2ncc3ccc(NC(=O)c4c(F)cccc4Cl)cc32)c1` [Compound V-124] gave a pIC50 (Table 8, indazoles) greater than 4.82.

Under “Table 8, indazoles”, `Cc1cccc(S(=O)(=O)n2nc(Br)c3ccc(NC(=O)c4c(F)cccc4Cl)cc32)c1` [Compound V-52] showed a pIC50 greater than 4.82.

Consider `N#Cc1ccc(S(=O)(=O)n2ncc3ccc(NC(=O)c4c(F)cccc4Cl)cc32)c(Cl)c1` [Compound V-146], for which the pIC50 (Table 8, indazoles) is greater than 4.82.

For the setting “Table 8, indazoles”, `O=C(Nc1ccc2cnn(S(=O)(=O)c3ccc(F)c(C(F)(F)F)c3)c2c1)c1c(F)cccc1Cl` [Compound V-81] had a pIC50 greater than 4.82.

For the setting “benzoxazines, Table 9”, `O=C(Nc1ccc2c(c1)N(S(=O)(=O)c1ccc(F)cc1)CCO2)c1c(F)cccc1Cl` [Compound 17, 2-Chloro-6-fluoro-N-(4-((4-fluorophenyl)sulfonyl)-3,4-dihydro-2H-benzo[b][1,4]oxazin-6-yl)benzamide] gave a pIC50 of less than 4.82.

On to `O=C(Nc1ccc2cnn(S(=O)(=O)c3cccc(Cl)c3)c2c1)c1c(Cl)cccc1Cl` [Compound V-72], for which the pIC50 (Table 8, indazoles) is greater than 4.82.

In turn, `C[C@H]1CN(S(=O)(=O)c2ccc(F)cc2)c2cc(NC(=O)c3c(F)cccc3C(F)(F)F)ccc2O1` [VI-19] had a negative-log IC50 (pIC50) (benzoxazines, Table 9) greater than 4.82.

In the case of `O=C(Nc1ccc2cnn(S(=O)(=O)c3ccc(N4CCOCC4)nc3)c2c1)c1c(F)cccc1Cl` [Compound V-95], for the setting “Table 8, indazoles”, the pIC50 was greater than 4.82.

On to `N#Cc1cccc(S(=O)(=O)N2C[C@@H](CO)Oc3ccc(NC(=O)Cc4ccc(F)cc4)cc32)c1` [VI-58], for which, for the setting “benzoxazines, Table 9”, the pIC50 is greater than 4.82.

As to `O=C(Nc1ccc2cnn(S(=O)(=O)c3cc(Cl)cc(Cl)c3)c2c1)c1c(F)cccc1Cl` [Compound V-126], the pIC50 (Table 8, indazoles) is greater than 4.82.

For the setting “Table 8, indazoles”, `O=C(Nc1ccc2cnn(S(=O)(=O)Cc3ccc(C(F)(F)F)cc3)c2c1)c1c(Cl)cccc1C(F)(F)F` [Compound V-38] gave a negative logarithm of the IC50 (pIC50) greater than 4.82.

Take `O=C(Cc1ccc(F)cc1)Nc1ccc2c(c1)N(S(=O)(=O)c1ccc(Cl)cc1)C[C@H](CO)O2` [VI-68]: the pIC50 (benzoxazines, Table 9) was greater than 4.82.

In turn, `O=C(Nc1ccc2cnn(S(=O)(=O)c3ccc(Cl)c(Cl)c3)c2c1)c1c(F)cccc1Cl` [Compound V-154] showed a pIC50 (Table 8, indazoles) greater than 4.82.

The compound `CCNCC1CN(S(=O)(=O)c2ccc(F)cc2)c2cc(NC(=O)c3c(F)cccc3Cl)ccc2O1` (centres unmarked) [VI-34] showed a pIC50 (benzoxazines, Table 9) greater than 4.82.

Under “benzoxazines, Table 9”, `O=C(Nc1ccc2c(c1)N(S(=O)(=O)c1ccc(F)cc1)C[C@H](CO)O2)c1c(F)cccc1Cl` [Compound 18, (R)-2-Chloro-6-fluoro-N-(4-((4-fluorophenyl)sulfonyl)-2-(hydroxymethyl)-3,4-dihydro-2H-benzo[b][1,4]oxazin-6-yl)benzamide] showed a pIC50 of less than 4.82.

`O=C(Nc1ccc2cnn(S(=O)(=O)c3ccc(F)cc3)c2c1)c1c(F)cccc1Cl` [Compound V-171] gave a negative logarithm of the IC50 (pIC50) (Table 8, indazoles) greater than 4.82.

With `COC(=O)c1cc(S(=O)(=O)n2ncc3ccc(NC(=O)c4c(F)cccc4Cl)cc32)oc1C` [Compound V-150], the pIC50 (Table 8, indazoles) is greater than 4.82.

Consider `O=C(Nc1ccc2cnn(S(=O)(=O)c3cccc(Cl)c3)c2c1)c1c(F)cccc1Cl` [Compound V-53], for which, where the note is “Table 8, indazoles”, the pIC50 is greater than 4.82.

Under “Table 8, indazoles”, `O=C(Nc1ccc2cnn(S(=O)(=O)c3cccc(Cl)c3)c2c1)c1c(F)cccc1F` [Compound V-61] gave a pIC50 greater than 4.82.

`COc1ccc(S(=O)(=O)n2ncc3ccc(NC(=O)c4c(F)cccc4Cl)cc32)c(OC)c1` [Compound V-91] had a pIC50 (Table 8, indazoles) greater than 4.82.

For the compound `Cc1cccc(F)c1C(=O)Nc1ccc2cnn(S(=O)(=O)c3cccc(C(F)(F)F)c3)c2c1` [Compound V-1], the pIC50 (Table 8, indazoles) is greater than 4.82.

`Cc1c(Cl)cccc1S(=O)(=O)n1ncc2ccc(NC(=O)c3c(F)cccc3Cl)cc21` [Compound V-145] showed a negative logarithm of the IC50 (pIC50) (Table 8, indazoles) greater than 4.82.

For the compound `CCCNCC1CN(S(=O)(=O)c2ccc(F)cc2)c2cc(NC(=O)c3c(F)cccc3Cl)ccc2O1` (centres unmarked) [VI-33], the pIC50 (benzoxazines, Table 9) was greater than 4.82.

As for `O=C(Nc1ccc2cnn(S(=O)(=O)c3ccc(F)cc3F)c2c1)c1c(F)cccc1Cl` [Compound V-168], where the note is “Table 8, indazoles”, the pIC50 is greater than 4.82.

Compound `O=C(Cc1ccc(F)cc1)Nc1ccc2c(c1)N(S(=O)(=O)c1ccc(F)c(F)c1)C[C@@H](CO)O2` [VI-74] had a pIC50 (benzoxazines, Table 9) greater than 4.82.

Compound `COc1cccc(S(=O)(=O)n2ncc3ccc(NC(=O)Cc4cnc(C)s4)cc32)c1` [Compound V-7] gave a pIC50 (Table 8, indazoles) greater than 4.82.

`Cc1ncc(CC(=O)Nc2ccc3cnn(S(=O)(=O)c4cccc(C(C)(C)C)c4)c3c2)s1` [Compound V-2] gave a pIC50 (Table 8, indazoles) greater than 4.82.

As for `O=C(Cc1ccc(F)c(F)c1)Nc1ccc2cnn(S(=O)(=O)c3cccc(OC(F)F)c3)c2c1` [Compound V-18], the pIC50 (Table 8, indazoles) is greater than 4.82.

Compound `O=C(Nc1ccc2c(c1)N(S(=O)(=O)c1ccc(Cl)cc1)C[C@@H](CO)O2)c1c(F)cccc1Cl` [VI-54] showed a negative-log IC50 (pIC50) (benzoxazines, Table 9) greater than 4.82.

As to `Cc1ncc(CC(=O)Nc2ccc3cnn(S(=O)(=O)c4cccc(Cl)c4)c3c2)s1` [Compound V-6], the pIC50 (Table 8, indazoles) was greater than 4.82.

In turn, `C[C@H]1CN(S(=O)(=O)c2cccc(C#N)c2)c2cc(NC(=O)c3c(F)cccc3Cl)ccc2O1` [VI-6] had a pIC50 (benzoxazines, Table 9) greater than 4.82.

Turning to `Cc1ccc(S(=O)(=O)n2ncc3ccc(NC(=O)c4c(F)cccc4Cl)cc32)cc1F` [Compound V-125], the pIC50 (Table 8, indazoles) was greater than 4.82.

`Cc1cccc(Cl)c1C(=O)Nc1ccc2cnn(S(=O)(=O)c3cccc(C(F)(F)F)c3)c2c1` [Compound V-8] had a pIC50 (Table 8, indazoles) greater than 4.82.

As to `O=C(Nc1ccc2cnn(S(=O)(=O)Cc3ccccc3)c2c1)c1c(F)cccc1Cl` [Compound V-155], the negative-log IC50 (pIC50) (Table 8, indazoles) was greater than 4.82.

Compound `N#Cc1nn(S(=O)(=O)c2cccc(C(F)(F)F)c2)c2cc(NC(=O)c3c(F)cccc3Cl)ccc12` [Compound V-9] showed a negative logarithm of the IC50 (pIC50) (Table 8, indazoles) greater than 4.82.

On to `N#Cc1ccccc1S(=O)(=O)n1ncc2ccc(NC(=O)c3c(F)cccc3Cl)cc21` [Compound V-87], for which, for the setting “Table 8, indazoles”, the pIC50 is greater than 4.82.

As for `CC(C)(C)c1cccc(S(=O)(=O)n2ncc3ccc(NC(=O)c4c(Cl)cccc4Cl)cc32)c1` [Compound V-67], the pIC50 (Table 8, indazoles) is greater than 4.82.
